In paper PMC2646632 (ACS chemical biology, 2008):

Test system: mouse SMN mRNA
Experiment: Real-time PCR of endogenous SMN mRNA in NSC34 cells
Type: cell-based
Details: trichostatin A at 100 nM

SMILES	Increase of SMN mRNA
Nc1nc(N)c2c(OCC3CCN(Cc4ccccc4F)CC3)cccc2n1 [D156844]	two-fold
CC(/C=C/C(=O)NO)=C\[C@@H](C)C(=O)c1ccc(N(C)C)cc1 [trichostatin A]	two-fold
